Marks after values point to notes of the source that are not given here.
Assays:
[1] = target: T1, ERR1 (also known as ERR-α or ERR-1) (Homo sapiens, UniProt P11474); assay: TR-FRET assay (disruption of co-activator peptide binding to ERR1 LBD); format: biochemical
T1 sequence (P11474 193-421 limits assumed): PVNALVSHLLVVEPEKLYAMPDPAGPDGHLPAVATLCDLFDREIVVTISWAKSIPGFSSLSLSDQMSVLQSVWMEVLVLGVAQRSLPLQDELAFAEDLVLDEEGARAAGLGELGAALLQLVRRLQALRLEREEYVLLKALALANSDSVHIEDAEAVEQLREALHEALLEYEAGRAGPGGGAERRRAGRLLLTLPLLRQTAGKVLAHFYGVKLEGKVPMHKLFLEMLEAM
Protocol: Time-Resolved Fluorescence Resonance Energy Transfer (TR-FRET) experiments were performed to examine the functional response of ERR1 (also known as ERR-α or ERR-1) ligands. The TR-FRET assay described herein relied on the conformation of ERR1 for binding to a co-activator peptide: when a test compound binds to ERR1 and alters its conformation, it can disrupt the binding of the co-activator peptide. The components of this homogeneous secondary assay included: the ^6His-tagged-ERR1LBD, a GST-labeled-hSRC2 co-activator polypeptide and a fluorescent donor/acceptor pair from CIS bio international htrf/bioassays (Bedford, Mass.) using both an α-GST Europium Cryptate (Eu) label and an α^6His-XL665 (allophycocyanin) fluorophore.
Reactions were allowed to reach equilibrium at 25° C. for 4-18 hours before collecting data on the Analyst from LJL Biosystems (Molecular Devices Sunnyvale, Calif.). […] Dose response curves were fitted using a hyperbolic equation and the data reported is the average of 3 independent experiments.

[2] = system: ZDF fa/fa male rats; assay: ZDF diabetic rat model (3, 10, 30 mpk); format: in vivo; details: for % Fat Day 18: Q-NMR; for FFA (NEFA) / Glucose / Triglycerides / cholesterol / ketone: 26 day ZDF rat efficacy study; for circulating glucose levels upon intraperitoneal delivery of insulin (ITT): FIG. 4, ITT at day 11
Source text: The ZDF rat is a monogenic model of Type II Diabetes. […] This mutation results in a hyperphagic phenotype and the rodent develops obesity, hyperlipidemia, fasting hyperglycemia and Type II Diabetes. The model at 7 weeks of age develops hyperinsulinemia followed by a loss of glucose stimulated insulin secretion due to beta islet failure. Fifty ZDF fa/fa male rats were received at four weeks of age and allowed to acclimate for one week. At five week of age the animals were single housed in cages in a temperature-controlled room with 12-hour light/dark cycle. They were allowed ad libitum access to water and food and throughout the study were maintained on a Purina 5008 diet. Animals were sorted into five groups based first on glucose levels and then at body weight (average fed glucose levels and body weight at 7 weeks of age were 488 mg/dL and 282 grams, respectively). Animals were given Compound 1 orally once a day for 25 days in the morning at 3 mpk, 10 mpk and 30 mpk. A separate group was dosed daily with vehicle. The vehicle used for Compound 1 in this study consisted of 15% VE-TEPG, 30% PEG400 and 55% water. Food intake, body weight, glucose, insulin, triglyceride and free fatty acid levels were monitored throughout the study using blood collected from the tail vein. At day 11 of the study an insulin tolerance test (ITT) was done to evaluate peripheral insulin sensitivity. On day 19 an OGTT was done to assess glucose disposal rates. […] On the day of the necropsy the rats were bled through the orbital sinus under CO2:O2 anesthesia. Animals were sacrificed and several tissues were collected, frozen in liquid nitrogen and stored at −80° C. Serum plasma samples were prepared by centrifugation in EDTA containing tubes, transferred into 96 well plates and stored at −80° C.

SMILES: COc1cc(/C=C2\SC(=O)NC2=O)ccc1Oc1ccc(C#N)cc1C(F)(F)F [Compound 1, 4-[4-(2,4-Dioxo-thiazolidin-5-ylidenemethyl)-2-methoxy-phenoxy]-3-trifluoromethyl-benzonitrile]
- EC50 [1]: 54 nM
- Body weight change (0-25 day) ([2]; 3 mpk orally once a day): 62.7*
- Total food intake (0-25 days) ([2]; 3 mpk orally once a day): 727
- % Fat Day 18 ([2]; 3 mpk orally once a day): 58** %
- FFA (NEFA) ([2]; 3 mpk): 0.65 mM
- Glucose ([2]; 3 mpk): 584.88 mg/dL
- Triglycerides ([2]; 3 mpk): 596.33 mg/dL
- cholesterol ([2]; 3 mpk): 145.70 mg/dL
- ketone ([2]; 3 mpk): 183.97 µmol/L
- Body weight change (0-25 day) ([2]; 10 mpk orally once a day): 49.3
- Total food intake (0-25 days) ([2]; 10 mpk orally once a day): 720
- % Fat Day 18 ([2]; 10 mpk orally once a day): 59** %
- FFA (NEFA) ([2]; 10 mpk): 0.54 mM
- Glucose ([2]; 10 mpk): 549.63 mg/dL
- Triglycerides ([2]; 10 mpk): 402.39** mg/dL
- cholesterol ([2]; 10 mpk): 156.08* mg/dL
- ketone ([2]; 10 mpk): 144.61 µmol/L
- Body weight change (0-25 day) ([2]; 30 mpk orally once a day): 65.3*
- Total food intake (0-25 days) ([2]; 30 mpk orally once a day): 703**
- % Fat Day 18 ([2]; 30 mpk orally once a day): 60*** %
- FFA (NEFA) ([2]; 30 mpk): 0.48 mM
- Glucose ([2]; 30 mpk): 545.64 mg/dL
- Triglycerides ([2]; 30 mpk): 320.94*** mg/dL
- cholesterol ([2]; 30 mpk): 169.92** mg/dL
- ketone ([2]; 30 mpk): 134.84* umol/L
- fed free fatty acid levels ([2]; FIG. 3, versus vehicle control): reduces
- fed triglyceride levels ([2]; FIG. 3, versus vehicle control): reduces
- circulating glucose levels upon intraperitoneal delivery of insulin (ITT) [2]: reduction in circulating glucose levels
- circulating glucose levels upon intraperitoneal delivery of insulin (ITT) ([2]; listed as compound 1): normalizing glucose levels at the 30 minute time point
- AUC of glucose during the ITT ([2]; FIG. 4 right panel, 0-60 and 0-120 minute time points): reduction of AUC of glucose
- fasting glucose levels ([2]; FIG. 5, after a 16 hour fast): reduction in fasting glucose levels
- plasma glucose following an oral glucose tolerance test ([2]; FIG. 6, OGTT day 19): lowering fasting plasma glucose
- insulin release levels following an oral glucose tolerance test ([2]; FIG. 7): increase on insulin release levels
- Hb1Ac levels ([2]; FIG. 8, after 26 days treatment): reduction in Hb1Ac levels
- fed glucose levels ([2]; FIG. 8, first three weeks of the study): lowering of fed glucose levels
- fed plasma insulin levels ([2]; FIG. 9): increasing fed plasma insulin levels
- pancreatic insulin content ([2]; FIG. 9): increasing
